According to patent publication US12312356B2, “Anthelmintic heterocyclic compounds” (Boehringer Ingelheim Vetmedica GmbH, priority 2020, dated 2025):

Assays:
[1] = system: microfilariae of Dirofilaria immitis; assay: Screening method to test activity against microfilaria of Dirofilaria immitis (motility, dose response); format: cell-based; conditions: 72 h, read-out: EC50 value (motility of the microfilaria)
[2] = system: L4 stage Dirofilaria immitis worms; assay: Screening method to test activity against L4 stage larvae of Dirofilaria immitis (motility, dose response); format: cell-based; conditions: 72 h, read-out: EC50 value (motility of L4 larvae)

SMILES	EC50 [1]	EC50 [2]
Cc1nc2c(C(C)C)c(C(=O)N[C@H]3CCOc4ccccc43)cnn2c1-c1cc(F)cc(F)c1 [Compound 175, 3-(3,5-difluorophenyl)-N-[(4S)-3,4-dihydro-2H-1-benzopyran-4-yl]-8-isopropyl-2-methylimidazo[1,2-b]pyridazine-7-carboxamide]	1 to 10 nM	1 to 10 nM
Cc1nc2c(C(C)C)c(C(=O)N[C@H]3CCOc4ccccc43)cnn2c1-c1cc(Cl)cc(Cl)c1 [Compound 271, 3-(3,5-dichlorophenyl)-N-[(4S)-3,4-dihydro-2H-1-benzopyran-4-yl]-8-isopropyl-2-methylimidazo[1,2-b]pyridazine-7-carboxamide]	1 to 10 nM	< 1 nM
Cc1nc2c(C(C)(C)F)c(C(=O)N[C@H]3CCOc4ccccc43)cnn2c1-c1cc(F)cc(F)c1 [Compound 277, 3-(3,5-difluorophenyl)-N-[(4S)-3,4-dihydro-2H-1-benzopyran-4-yl]-8-(2-fluoropropan-2-yl)-2-methylimidazo[1,2-b]pyridazine-7-carboxamide]	1 to 10 nM	1 to 10 nM
C=C(C)c1c(C(=O)N[C@H]2CCOc3ccccc32)cnn2c(-c3cc(F)cc(F)c3)c(C)nc12 [Compound 279, 3-(3,5-difluorophenyl)-N-[(4S)-3,4-dihydro-2H-1-benzopyran-4-yl]-2-methyl-8-(prop-1-en-2-yl)imidazo[1,2-b]pyridazine-7-carboxamide]	10 to 100 nM	–
CC(C)c1c(C(=O)N[C@H]2CCOc3ccc(F)cc32)cnn2c(Cl)c(-c3cc(Cl)cc(Cl)c3)nc12 [Compound 304-0, 3-chloro-2-(3,5-dichlorophenyl)-N-[(4S)-6-fluoro-3,4-dihydro-2H-1-benzopyran-4-yl]-8-isopropylimidazo[1,2-b]pyridazine-7-carboxamide]	–	1000 to 10000 nM
Cc1nc2c(C(C)(C)C)c(C(=O)N[C@H]3CCOc4ccccc43)cnn2c1-c1cc(Cl)cc(Cl)c1 [Compound 306, 8-tert-butyl-3-(3,5-dichlorophenyl)-N-[(4S)-3,4-dihydro-2H-1-benzopyran-4-yl]-2-methylimidazo[1,2-b]pyridazine-7-carboxamide]	1 to 10 nM	< 1 nM
Cc1nc2c(C(C)C)c(NC(=O)[C@H]3CCOc4ccccc43)cnn2c1-c1cc(F)cc(F)c1 [Compound 320, (4S)—N-[3-(3,5-difluorophenyl)-8-isopropyl-2-methylimidazo[1,2-b]pyridazin-7-yl]-3,4-dihydro-2H-1-benzopyran-4-carboxamide]	–	10 to 100 nM
Cc1nc2c(C(C)C)c(NC(=O)[C@@H]3CCOc4ccccc43)cnn2c1-c1cc(F)cc(F)c1 [Compound 320-0, (4R)—N-[3-(3,5-difluorophenyl)-8-isopropyl-2-methylimidazo[1,2-b]pyridazin-7-yl]-3,4-dihydro-2H-1-benzopyran-4-carboxamide]	–	1000 to 10000 nM
Cc1nc2c(C(C)C)c(C(=O)N[C@H]3CCOc4ccccc43)cnn2c1C(C)(C)C [Compound 323, 3-tert-butyl-N-[(4S)-3,4-dihydro-2H-1-benzopyran-4-yl]-8-isopropyl-2-methylimidazo[1,2-b]pyridazine-7-carboxamide]	10 to 100 nM	100 to 1000 nM
Cc1nc2c(C(C)C)c(C(=O)N[C@H]3CCOc4ccccc43)cnn2c1CC(C)C [Compound 323-0, N-[(4S)-3,4-dihydro-2H-1-benzopyran-4-yl]-2-methyl-3-(2-methylpropyl)-8-(propan-2-yl)imidazo[1,2-b]pyridazine-7-carboxamide]	10 to 100 nM	10 to 100 nM
Cc1nc2c(C(C)C)c(C(=O)N[C@H]3CCOc4ccccc43)cnn2c1N1CCCCC1 [Compound 324, N-[(4S)-3,4-dihydro-2H-1-benzopyran-4-yl]-8-isopropyl-2-methyl-3-(piperidin-1-yl)imidazo[1,2-b]pyridazine-7-carboxamide]	< 1 nM	1 to 10 nM
Cc1nc2c(C(C)C)c(C(=O)N[C@H]3CCOc4ccccc43)cnn2c1[C@H]1CC[C@H](C(F)(F)F)CC1 [Compound 326, N-[(4S)-3,4-dihydro-2H-1-benzopyran-4-yl]-8-isopropyl-2-methyl-3-[(1r,4r)-4-(trifluoromethyl)cyclohexyl]imidazo[1,2-b]pyridazine-7-carboxamide]	–	10 to 100 nM
Cc1nc2c(C(C)C)c(C(=O)N[C@H]3CCOc4ccccc43)cnn2c1[C@H]1CC[C@@H](C(F)(F)F)CC1 [Compound 326-0, N—((S)-chroman-4-yl)-8-isopropyl-2-methyl-3-((1s,4R)-4-(trifluoromethyl)cyclohexyl)imidazo[1,2-b]pyridazine-7-carboxamide]	10 to 100 nM	1 to 10 nM
Cc1nc2c(C(C)C)c(C(=O)N[C@H]3CCOc4ccccc43)cnn2c1C1=CCC(C(F)(F)F)CC1 (stereo partly drawn) [Compound 327, N-[(4S)-3,4-dihydro-2H-1-benzopyran-4-yl]-8-isopropyl-2-methyl-3-[4-(trifluoromethyl)cyclohex-1-en-1-yl]imidazo[1,2-b]pyridazine-7-carboxamide]	–	1 to 10 nM
CC(C)c1c(C(=O)N[C@H]2CCOc3ccccc32)cnn2c(-c3cc(Cl)cc(Cl)c3)cnc12 [Compound 352, 3-(3,5-dichlorophenyl)-N-[(4S)-3,4-dihydro-2H-1-benzopyran-4-yl]-8-isopropylimidazo[1,2-b]pyridazine-7-carboxamide]	10 to 100 nM	–
Cc1nc2c(C(C)C)c(C(=O)N[C@H]3CCOc4ccccc43)cnn2c1C#N [Compound 366, 3-cyano-N-[(4S)-3,4-dihydro-2H-1-benzopyran-4-yl]-8-isopropyl-2-methylimidazo[1,2-b]pyridazine-7-carboxamide]	–	1000 to 10000 nM
O=C(N[C@H]1CCOc2ccccc21)c1cnn2c(-c3cc(Cl)cc(Cl)c3)c(C(F)(F)F)nc2c1N1CCOCC1 [Compound 450, 3-(3,5-dichlorophenyl)-N-[(4S)-3,4-dihydro-2H-1-benzopyran-4-yl]-8-(morpholin-4-yl)-2-(trifluoromethyl)imidazo[1,2-b]pyridazine-7-carboxamide]	100 to 1000 nM	–
O=C(N[C@H]1CCOc2ccccc21)c1cnn2c(-c3cc(Cl)cc(Cl)c3)cnc2c1N1CCOCC1 [Compound 511, 3-(3,5-dichlorophenyl)-N-[(4S)-3,4-dihydro-2H-1-benzopyran-4-yl]-8-(morpholin-4-yl)imidazo[1,2-b]pyridazine-7-carboxamide]	10 to 100 nM	–
CC(=O)c1nc2c(C(C)C)c(C(=O)N[C@H]3CCOc4ccccc43)cnn2c1-c1cc(Cl)cc(Cl)c1 [Compound 558, 2-acetyl-3-(3,5-dichlorophenyl)-N-[(4S)-3,4-dihydro-2H-1-benzopyran-4-yl]-8-isopropylimidazo[1,2-b]pyridazine]	10 to 100 nM	–
Cc1nc2c(C(C)(C)C)c(C(=O)NN3CCOc4ccccc43)cnn2c1-c1cc(Cl)cc(Cl)c1 [Compound 614, 8-tert-butyl-3-(3,5-dichlorophenyl)-N-(2,3-dihydro-1,4-benzoxazin-4-yl)-2-methylimidazo[1,2-b]pyridazine-7-carboxamide]	1 to 10 nM	–
